Source: patent US11472814B2, “Thienopyranones and furanopyranones as checkpoint inhibitors and modulators of anti-tumor immunity” (SignalRx Pharmaceuticals, Inc., priority 2017, dated 2022)

Assays:
PI3K α = target: T1, PI3K α (Homo sapiens, UniProt P42336); test: PI3K alpha inhibition IC50 (Thermo Fisher); assay type: biochemical; details: 10-point curve
T1 construct: purchased Thermo Fisher Scientific-Biosciences Life Sciences Solutions, Madison, Wis; (contract assay service)
Excerpt: (§1) The inhibitory activity of a compound of the invention against PI3K and/or BRD4 and/or SYK and/or CDK4/6 can be readily determined using methods known to the skilled artisan, or by commercial vendors offering such services. […] In vivo, PI3K inhibition can be determined from target tissue biopsies by standard tissue processing to disrupt cells and then performing Western Blot analysis to determine the presence or absence of pAKT (substrate of PI3K) relative to a control sample. The activity of a compound of the invention as an inhibitor of a bromodomain-containing protein, such as a BET protein, such as BRD2, BRD3, BRD4, and/or BRDT, or an isoform or mutant thereof, may be determined in vitro, in vivo, or in a cell line. In vitro assays include assays that determine inhibition of bromodomain-containing proteins. Alternatively, inhibitor binding may be determined by running a competition experiment where a provided compound is incubated with a bromodomain-containing protein, such as a BET protein bound to known ligands, labeled or unlabeled. For example, bromodomain inhibition can be determined in vitro using Alpha Screen Technology (http://www.reactionbiologv.com/webapps/site/NewsPDFs/Bromodomain%20Assay %20Platform %20for %20Drug %20Screening %20and %20Discovery.pdf). In vivo bromodomain inhibition can be determined indirectly by evaluating the amount of protein present of proteins whose genes' transcription is influenced or controlled by the bromodomain protein, for example, the MYCN protein transcription is controlled by BRD4 (J. E. Delmore et al., Cell 2011, 146, 904-917; A. Puissant, Cancer Discov. 2013, 3, 308-323). Bromodomain inhibition may also be predicted by in silico modeling as described below in the Examples. Additionally, the company Promega offers a SYK luminescent assay to determine a compound's ability to inhibit the SYK protein (https://www.promega.com/-/media/files/resources/protocols/kinase-enzyme-appnotes/syk-kinase-assay-protocol.pdf?la=en).
(§2) Compounds of the invention were characterized for their ability to inhibit target proteins using third party vendors offering such services. PI3K alpha, gamma, and delta inhibition activity was determined by Thermo Fisher Scientific-Biosciences Life Sciences Solutions, Madison, Wis. The bromodomain protein inhibition (binding domain 1 and 2 of BRD4) as well as SYK inhibition was determined at Reaction Biology Corp., Malvern, Pa. […] The IC50 data (shown below in Table 5) was calculated from a 10-point curve and is expressed in nanomolar concentration (nM) rounded off to the nearest whole number. […]

[1] = tested on: Bone marrow derived macrophages (BMDMs), M2 gene expression; test: M2 marker mRNA in IL4 stimulated bone marrow derived macrophages (RT PCR); assay type: cell-based, murine; details: 24 hours, normalized to GAPDH, control = 1
BRD4-2 = target: T2, BRD4-2 (Homo sapiens, UniProt O60885); test: Bromodomain protein inhibition IC50, binding domain 2 of BRD4 (Reaction Biology Corp.); details: 10-point curve
T2 construct: purchased Reaction Biology Corp., Malvern, Pa; (contract assay service)
Excerpt: as §1, §2

BRD4-1 = target: T3, BRD4-1 (Homo sapiens, UniProt O60885); test: Bromodomain protein inhibition IC50, binding domain 1 of BRD4 (Reaction Biology Corp.); details: 10-point curve
T3 construct: purchased Reaction Biology Corp., Malvern, Pa; (contract assay service)
Excerpt: as §1, §2

[2] = tested on: Bone marrow derived macrophages (BMDMs), M1 gene expression; test: M1 marker mRNA in LPS stimulated bone marrow derived macrophages (RT PCR); assay type: cell-based, murine; details: for Il1 mRNA expression relative to control / Il6 mRNA expression relative to control / Tnfa mRNA expression relative to control: LPS stimulated BMDMs, 24 hours, normalized to GAPDH, control = 1
Excerpt: […] M2 markers Mmr, Ym1, Fizz1 and Mgl mRNA and M1 markers I11, 116 and Tnfa mRNA was quantitated by RT PCR. Values are mean±SEM (n=3-4). Expression of gene of interest is normalized to GAPDH. […] The data provide direct evidence that Compound 1 can block the immunosuppressive macrophage M2 gene expression and activate the M1 gene expression and therefore activate antitumor innate immune cell differentiation in vitro.
(§3) Relative mRNA expression of IL4 or LPS polarized genes in murine bone marrow derived macrophages (BMDMs) treated with various concentrations of inhibitors in vitro. Conclusion: Compound 3 suppressed in vitro macrophage specific immunosuppressive M2 gene expression markers and augmented macrophage stimulatory immune response M1 genes respectively.

[3] = tested on: Bone marrow derived macrophages (BMDMs), M2 gene expression; test: M2 marker mRNA in IL4 stimulated bone marrow derived macrophages (RT PCR); assay type: cell-based, murine; details: for Arg mRNA expression relative to control / Fizz1 mRNA expression relative to control / Mmr mRNA expression relative to control / Ym1 mRNA expression relative to control / Mgl mRNA expression relative to control: IL4 stimulated BMDMs, 24 hours, normalized to GAPDH, control = 1
Description: Bone marrow derived macrophages (MOs) (BMDMs) were exposed to IL4 or LPS for 24 hours to stimulate the M2 or M1 macrophage transition in presence of Compound 1 and the known SYK inhibitor Bay-61-3606 at 1 μM conc. M2 markers Mmr, Ym1, Fizz1 and Mgl mRNA and M1 markers I11, 116 and Tnfa mRNA was quantitated by RT PCR. Values are mean±SEM (n=3-4). Expression of gene of interest is normalized to GAPDH. […] The data provide direct evidence that Compound 1 can block the immunosuppressive macrophage M2 gene expression and activate the M1 gene expression and therefore activate antitumor innate immune cell differentiation in vitro.
as §3

SYK = target: T4, SYK (Homo sapiens, UniProt P43405); test: SYK inhibition IC50 (Reaction Biology Corp.); assay type: biochemical; details: 10-point curve; read-out: SYK IC50
T4 construct: purchased Reaction Biology Corp., Malvern, Pa; (contract assay service)
Excerpt: as §1
Compounds of the invention were characterized for their ability to inhibit target proteins using third party vendors offering such services. PI3K alpha, gamma, and delta inhibition activity was determined by Thermo Fisher Scientific-Biosciences Life Sciences Solutions, Madison, Wis. The bromodomain protein inhibition (binding domain 1 and 2 of BRD4) as well as SYK inhibition was determined at Reaction Biology Corp., Malvern, Pa. Additional information on each of the assays performed and services provided is available at each company's website on the internet (https://www.thermofisher.com/us/en/home/life-science.html and http://www.reactionbiology.com/webapps/site, respectively). The IC50 data (shown below in Table 5) was calculated from a 10-point curve and is expressed in nanomolar concentration (nM) rounded off to the nearest whole number. Where multiple values were obtained the range from lowest to highest values is presented. NI=no inhibition detected up to 50 uM or IC50 not reached at 50 uM.

PI3K γ = target: T5, PI3K γ (Homo sapiens, UniProt P48736); test: PI3K gamma inhibition IC50 (Thermo Fisher); assay type: biochemical; details: 10-point curve
T5 construct: purchased Thermo Fisher Scientific-Biosciences Life Sciences Solutions, Madison, Wis; (contract assay service)
T5 sequence (P48736 whole entry): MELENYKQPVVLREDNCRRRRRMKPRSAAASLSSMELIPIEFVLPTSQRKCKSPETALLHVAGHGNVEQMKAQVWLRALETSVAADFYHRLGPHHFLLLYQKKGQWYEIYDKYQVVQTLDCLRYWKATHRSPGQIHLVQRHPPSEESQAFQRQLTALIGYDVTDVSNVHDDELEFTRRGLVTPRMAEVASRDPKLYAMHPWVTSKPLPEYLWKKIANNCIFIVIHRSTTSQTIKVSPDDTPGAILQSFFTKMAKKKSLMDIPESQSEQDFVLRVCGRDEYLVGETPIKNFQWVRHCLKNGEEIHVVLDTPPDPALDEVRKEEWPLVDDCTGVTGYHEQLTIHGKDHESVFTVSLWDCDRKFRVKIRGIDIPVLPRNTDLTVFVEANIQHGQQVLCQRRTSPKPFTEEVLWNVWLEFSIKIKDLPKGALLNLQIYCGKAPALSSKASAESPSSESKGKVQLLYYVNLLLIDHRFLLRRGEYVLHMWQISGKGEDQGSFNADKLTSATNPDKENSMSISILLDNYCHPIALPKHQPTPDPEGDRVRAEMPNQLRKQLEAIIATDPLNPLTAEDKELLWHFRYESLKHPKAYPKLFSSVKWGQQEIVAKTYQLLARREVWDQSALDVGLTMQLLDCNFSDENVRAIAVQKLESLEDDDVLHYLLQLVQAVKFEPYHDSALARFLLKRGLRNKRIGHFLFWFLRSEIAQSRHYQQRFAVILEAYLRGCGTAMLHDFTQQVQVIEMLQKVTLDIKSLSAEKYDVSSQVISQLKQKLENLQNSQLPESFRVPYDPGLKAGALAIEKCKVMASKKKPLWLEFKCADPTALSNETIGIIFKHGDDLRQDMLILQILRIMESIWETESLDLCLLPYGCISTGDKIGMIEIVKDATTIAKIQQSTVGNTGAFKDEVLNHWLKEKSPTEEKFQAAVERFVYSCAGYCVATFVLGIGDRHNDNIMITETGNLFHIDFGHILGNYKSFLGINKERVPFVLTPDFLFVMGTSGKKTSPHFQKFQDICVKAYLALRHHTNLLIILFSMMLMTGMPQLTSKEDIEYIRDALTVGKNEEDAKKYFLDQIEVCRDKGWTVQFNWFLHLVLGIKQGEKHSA
Excerpt: as §1, §2

T1 sequence (P42336 whole entry): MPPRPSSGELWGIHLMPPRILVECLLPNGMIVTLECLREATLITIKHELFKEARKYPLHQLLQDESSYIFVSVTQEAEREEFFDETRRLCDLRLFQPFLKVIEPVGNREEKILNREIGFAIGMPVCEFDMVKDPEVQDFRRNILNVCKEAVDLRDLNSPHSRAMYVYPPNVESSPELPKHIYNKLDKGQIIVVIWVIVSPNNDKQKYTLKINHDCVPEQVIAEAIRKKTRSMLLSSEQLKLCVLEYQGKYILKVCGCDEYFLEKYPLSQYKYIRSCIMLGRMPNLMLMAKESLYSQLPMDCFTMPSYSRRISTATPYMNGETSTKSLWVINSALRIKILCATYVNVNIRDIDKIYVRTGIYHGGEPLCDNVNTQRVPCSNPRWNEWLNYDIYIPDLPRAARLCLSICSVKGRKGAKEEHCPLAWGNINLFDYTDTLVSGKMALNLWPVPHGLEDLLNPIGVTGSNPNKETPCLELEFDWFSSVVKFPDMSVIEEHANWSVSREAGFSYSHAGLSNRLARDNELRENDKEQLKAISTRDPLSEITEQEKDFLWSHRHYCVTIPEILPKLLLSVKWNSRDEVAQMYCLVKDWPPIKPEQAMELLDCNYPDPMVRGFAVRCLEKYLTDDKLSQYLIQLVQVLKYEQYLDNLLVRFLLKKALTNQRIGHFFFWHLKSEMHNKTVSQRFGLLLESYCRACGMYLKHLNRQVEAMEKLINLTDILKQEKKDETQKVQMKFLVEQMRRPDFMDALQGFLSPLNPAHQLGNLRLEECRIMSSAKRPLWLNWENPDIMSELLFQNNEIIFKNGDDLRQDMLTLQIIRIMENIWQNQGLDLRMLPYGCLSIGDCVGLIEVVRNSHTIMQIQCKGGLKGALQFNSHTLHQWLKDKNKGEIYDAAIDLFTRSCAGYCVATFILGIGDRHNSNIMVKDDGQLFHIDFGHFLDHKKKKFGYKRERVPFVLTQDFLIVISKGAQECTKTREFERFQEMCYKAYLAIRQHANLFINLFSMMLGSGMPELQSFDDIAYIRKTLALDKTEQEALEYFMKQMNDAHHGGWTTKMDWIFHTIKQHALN
T1 sequence (P27986 whole entry partner): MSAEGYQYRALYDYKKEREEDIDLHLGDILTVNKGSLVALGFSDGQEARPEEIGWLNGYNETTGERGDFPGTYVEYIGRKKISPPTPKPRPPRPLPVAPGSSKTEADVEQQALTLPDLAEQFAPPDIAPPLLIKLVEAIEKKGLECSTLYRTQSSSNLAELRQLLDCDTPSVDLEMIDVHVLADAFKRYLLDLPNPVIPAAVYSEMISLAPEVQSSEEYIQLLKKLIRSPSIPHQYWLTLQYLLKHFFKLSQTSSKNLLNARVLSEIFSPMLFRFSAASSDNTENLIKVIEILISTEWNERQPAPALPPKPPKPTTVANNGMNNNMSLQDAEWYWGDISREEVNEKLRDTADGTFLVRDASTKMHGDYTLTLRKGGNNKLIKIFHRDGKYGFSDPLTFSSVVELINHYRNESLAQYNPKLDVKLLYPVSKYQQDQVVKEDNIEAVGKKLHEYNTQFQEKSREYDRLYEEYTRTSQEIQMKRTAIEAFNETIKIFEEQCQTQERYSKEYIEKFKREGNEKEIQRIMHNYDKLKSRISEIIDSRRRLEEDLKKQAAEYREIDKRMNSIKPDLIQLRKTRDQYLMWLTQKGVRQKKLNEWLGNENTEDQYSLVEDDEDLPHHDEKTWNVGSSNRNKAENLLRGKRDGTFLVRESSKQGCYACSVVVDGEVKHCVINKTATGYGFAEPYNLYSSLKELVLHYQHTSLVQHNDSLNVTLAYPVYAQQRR

Cc1nn(-c2ccnc(Nc3ccc(-c4csc5c(=O)cc(N6CCOCC6)oc45)cc3)n2)cc1CN1CC(O)C1 [Compound 1, 3-[p-(4-{4-[(3-Hydroxy-1-azetidinyl)methyl]-3-methyl-1H-pyrazol-1-yl}-2-pyrimidinylamino)phenyl]-5-morpholino-4-oxa-1-thia-7-indenone]
IC50 (PI3K α): 0.1 to 1 µM | Mgl mRNA expression relative to control ([1]; 200 nM): 0.31 | Fizz1 mRNA expression relative to control ([1]; 2 μM): 0.22 | IC50 (BRD4-2): > 50 µM | IC50 (BRD4-1): > 50 µM | Il1 mRNA expression relative to control ([2]; 200 nM): 1.1 | Il6 mRNA expression relative to control ([2]; 200 nM): 1.7 | Tnfa mRNA expression relative to control ([2]; 200 nM): 0.88 | Il1 mRNA expression relative to control ([2]; 500 nM): 1.1 | Il6 mRNA expression relative to control ([2]; 500 nM): 1.29 | Tnfa mRNA expression relative to control ([2]; 500 nM): 1.23 | Il1 mRNA expression relative to control ([2]; 1 μM): 1.2 | Il6 mRNA expression relative to control ([2]; 1 μM): 3.15 | Tnfa mRNA expression relative to control ([2]; 1 μM): 1.70 | Il1 mRNA expression relative to control ([2]; 2 μM): 1.25 | Il6 mRNA expression relative to control ([2]; 2 μM): 1.59 | Tnfa mRNA expression relative to control ([2]; 2 μM): 1.99 | Il1 mRNA expression relative to control ([2]; 5 μM): 0.69 | Il6 mRNA expression relative to control ([2]; 5 μM): 0.97 | Tnfa mRNA expression relative to control ([2]; 5 μM): 0.90 | M1 inflammatory gene expression ([2]; BMDMs, LPS 24 hours, 1 μM): augments M1 inflammatory gene expression | Arg mRNA expression relative to control ([3]; 200 nM): 0.5 | Fizz1 mRNA expression relative to control ([3]; 200 nM): 0.44 | Mmr mRNA expression relative to control ([3]; 200 nM): 0.41 | Ym1 mRNA expression relative to control ([3]; 200 nM): 0.37 | Arg mRNA expression relative to control ([3]; 500 nM): 0.45 | Fizz1 mRNA expression relative to control ([3]; 500 nM): 0.31 | Mgl mRNA expression relative to control ([3]; 500 nM): 0.41 | Mmr mRNA expression relative to control ([3]; 500 nM): 0.18 | Ym1 mRNA expression relative to control ([3]; 500 nM): 0.21 | Arg mRNA expression relative to control ([3]; 1 μM): 0.39 | Fizz1 mRNA expression relative to control ([3]; 1 μM): 0.11 | Mgl mRNA expression relative to control ([3]; 1 μM): 0.30 | Mmr mRNA expression relative to control ([3]; 1 μM): 0.19 | Ym1 mRNA expression relative to control ([3]; 1 μM): 0.10 | Arg mRNA expression relative to control ([3]; 2 μM): 0.14 | Mgl mRNA expression relative to control ([3]; 2 μM): 0.40 | Mmr mRNA expression relative to control ([3]; 2 μM): 0.14 | Ym1 mRNA expression relative to control ([3]; 2 μM): 0.11 | Arg mRNA expression relative to control ([3]; 5 μM): 0.22 | Fizz1 mRNA expression relative to control ([3]; 5 μM): 0.06 | Mgl mRNA expression relative to control ([3]; 5 μM): 0.24 | Mmr mRNA expression relative to control ([3]; 5 μM): 0.18 | Ym1 mRNA expression relative to control ([3]; 5 μM): 0.04 | immunosuppressive macrophage M2 gene expression ([3]; BMDMs, IL4 24 hours, 1 μM): blocks immunosuppressive M2 gene expression | IC50 (SYK): < 0.1 µM | IC50 (PI3K γ): 5 to 50 µM
